Target: T1, AhR (Homo sapiens, UniProt P35869)
T1 construct: Degradation of endogenous AhR was further confirmed via Western blotting and global proteomics measurements in cells treated with 12b; host or cells: MCF7
T1 sequence (P35869 11-848): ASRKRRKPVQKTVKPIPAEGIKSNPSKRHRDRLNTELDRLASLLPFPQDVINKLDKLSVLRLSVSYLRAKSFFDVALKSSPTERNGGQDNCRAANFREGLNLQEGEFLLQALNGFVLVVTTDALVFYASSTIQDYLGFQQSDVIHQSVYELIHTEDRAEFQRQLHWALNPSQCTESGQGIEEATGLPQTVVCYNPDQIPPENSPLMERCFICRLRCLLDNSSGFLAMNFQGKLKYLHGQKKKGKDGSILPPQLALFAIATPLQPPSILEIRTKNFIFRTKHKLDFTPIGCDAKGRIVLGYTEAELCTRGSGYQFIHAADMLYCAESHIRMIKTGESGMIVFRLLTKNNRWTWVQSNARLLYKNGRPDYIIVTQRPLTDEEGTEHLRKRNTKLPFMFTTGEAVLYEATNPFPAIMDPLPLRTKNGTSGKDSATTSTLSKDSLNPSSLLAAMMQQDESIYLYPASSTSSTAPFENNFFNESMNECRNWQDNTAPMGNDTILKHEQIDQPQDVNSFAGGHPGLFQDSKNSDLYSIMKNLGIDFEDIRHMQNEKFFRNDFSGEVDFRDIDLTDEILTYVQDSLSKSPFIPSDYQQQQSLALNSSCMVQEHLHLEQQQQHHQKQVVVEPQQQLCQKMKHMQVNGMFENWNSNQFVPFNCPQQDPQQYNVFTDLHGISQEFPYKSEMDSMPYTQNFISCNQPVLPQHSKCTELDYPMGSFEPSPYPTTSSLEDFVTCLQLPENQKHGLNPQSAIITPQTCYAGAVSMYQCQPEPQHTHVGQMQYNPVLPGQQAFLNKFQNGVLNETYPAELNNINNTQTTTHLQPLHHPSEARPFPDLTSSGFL
Assay: Western blot of AhR in MCF7 cells
Assay type: cell-based
Settings: 10 µM, 5 h
Procedure: Figure S30. Agonists induce degradation of AhR.
12b, 12c, and 12d at a concentration of 10 µM for 5h. The numbers on the Blot indicate the signal intensities of the bands relative to the Tubulin bands, normalized to DMSO treatment as quantified with Empiria Studio. […]
Cell culture and treatment […]
MCF7 cells were purchased from ATCC and grown in DMEM with 10% FCS and 1% penicillin/ streptomycin. […]
All cells were cultivated at 37 °C in a humidified atmosphere containing 5% CO 2.
Tapinarof (MedChemExpress, Monmouth Junction, NJ), benzo[a]pyrene (Sigma-Aldrich, Taufkirchen, Germany), TCDD (Amchro, Hattersheim am Main, Germany) and all compounds synthesized in this study were dissolved in dimethyl sulfoxide (DMSO; Roth). […]
Quantitative real-time PCR […]
• CYP1A1: […] (forward (5'>3')); […] (reverse (5'>3')).
• CYP1B1: […] (forward (5'>3')); […] (reverse (5'>3')).
• CCL26: […] (forward (5'>3')); […] (reverse (5'>3')).
• IL-19: […] (forward (5'>3')); […] (reverse (5'>3')).
• CXCL1: […] (forward (5'>3')); […] (reverse (5'>3')).
• β-actin: […] (forward (5'>3')); […] (reverse (5'>3')). […]
The assay was carried out as described earlier. Luciferase activity was normalized to protein content.
SDS-PAGE/Western blot analysis
Cells were lysed in RIPA buffer on ice and subsequently centrifuged for 15 min at 4 °C at maximum speed. Protein samples were separated by 10% and 12% SDS -polyacrylamide gel electrophoresis and blotted onto PVDF (GE Healthcare, Freiburg, Germany) or Nitrocellulose (BioRad #17 04158) membranes. Blots were blocked with 5% skim milk or bovine serum albumin in TBS -Tween-20 (0.1%) for or Intercept® (TBS) Blocking Buffer (LI -COR Biosciences) 1 h at room temperature and subsequently incubated overnight at 4 °C with primary antibodies. Blots were washed and then incubated for 1 h with a 1:5000 dilution of HRP -conjugated secondary antibodies in 5% bovine serum albumin in TBS -Tween-20 (0.1%) or anti-Mouse (Licor, IRDye® 680RD Goat anti -Mouse IgG, 1:10k dilution) or anti-Rabbit secondary antibody (Licor, IRDye® Goat anti -Rabbit IgG, 1:10k dilution) at room temperature. Bands were visualized using WesternBright ECL HRP substrate (Advansta, San Jose, CA) and a C -DiGit Western Blot Scanner (LI -COR Biotechnology, Lincoln, NE) or a Licor Odyssey CLx imager. Primary antibodies used in this study are as follows. AhR (Cat.No. 83200; Cell Signaling Technology, Leiden, The Netherlands). AIP (Cat.No. sc-59730; Santa Cruz Biotechnology, Dallas, TX). Cul4B (Cat.No. abx004735; Abbexa, Houston, TX). GAPDH (Cat.No. 2118; Cell Signaling Technology). Vinculin (Cat.No. 13901, Cell Signaling Technology). α - Tubulin (Abcam, ab7291, 1:10k dilution).
HaCaT-EV and HaCaT-shAhR cells were treated with either vehicle (DMSO) or 10 µM 12d for 0.5 h and 1 h. […]

AhR receptor proteolysis: induced receptor proteolysis
Structure (SMILES): Cc1[nH]c2ccccc2c1-c1c2[nH]c3ccccc3c2cc2[nH]c3ccccc3c12 [5e]
